Reference: US20100285959A1, “HERBICIDAL MIXTURES” (priority 2006, published 2010)

Legend:
yellow foxtail (SETLU) [1] = experiment: Test 6 field trial, postemergence; assay type: in vivo, Setaria glauca
Source text: (§1) Corn seeds (hybrid ‘Pioneer 35Y62’) were planted in mid spring season, 3.8 cm deep in a silt loam soil having 4% organic matter and a pH of 5.8. Plots were 10.7 m long by 1.5 m wide with rows spaced 76 cm apart. Seeds were spaced 18 cm apart within the rows. The field was managed using conventional tillage practices. […] All treatments included a surfactant except glufosinate treatments, both alone and in combination. […] Results are summarized in Table 6 and are the means of the three replicates.

yellow foxtail (SETLU) [2] = experiment: Test 1 field trial, preemergence; assay type: in vivo, Setaria glauca; conditions: 56 DAA
Source text: (§2) Corn seeds (hybrid ‘Pioneer 34N43’) were planted in mid spring season, 3.8 cm deep in a silt loam soil having 4.6% organic matter and a pH of 6. Plots were 10.7 m long by 1.5 m wide with rows spaced 76 cm apart. Seeds were spaced 18 cm apart within the rows. The field was managed using conventional tillage practices. […] Results are summarized in Table 1 and are the means of the three replicates. […] Colby's Equation (Colby, S. R. “Calculating Synergistic and Antagonistic Responses of Herbicide Combinations,” Weeds, 15(1), pp 20-22 (1967)) calculates the expected additive effect of herbicidal mixtures, and for two active ingredients is of the form:
(§3) Pa+b=Pa+Pb−(PaPb/100) • wherein Pa+b is the percentage effect of the mixture expected from additive contribution of the individual components, • Pa is the observed percentage effect of the first active ingredient at the same use rate as in the mixture, and • Pb is the observed percentage effect of the second active ingredient at the same use rate as in the mixture.

giant foxtail (SETFA) = experiment: Test 6 field trial, postemergence; assay type: in vivo, Setaria faberi
Source text: as §1

velvetleaf (ABUTH) [3] = experiment: Test 1 field trial, preemergence; assay type: in vivo, Abutilon theophrasti
Source text: as §2, §3

[4] = system: Pennsylvania smartweed (POLPY); experiment: Test 6 field trial, postemergence; assay type: in vivo, Polygonum pensylvanicum
Source text: as §1

arrowleaf sida (SIDRH) = experiment: Test 11 field trial, preemergence; assay type: in vivo, Sida rhombifolia
Source text: (§4) Corn seeds (hybrid ‘Pioneer 3041’) were planted in mid spring season, 5 cm deep in a clay soil having 2.6% organic matter and a pH of 5.6. Plots were 8 m long by 1.5 m wide with rows spaced 80 cm apart. Seeds were spaced 15 cm apart within the rows. The field was managed using conventional tillage practices. […] Treatments consisted of Compound 2 or
(§5) Goosegrass was not evaluated 16 or 91 days after application.

velvetleaf (ABUTH) [5] = experiment: Test 8 field trial, preemergence; assay type: in vivo, Abutilon theophrasti
Source text: Corn seeds (hybrid ‘Pioneer 31G96’) were planted in mid spring season, 3.8 cm deep in a clay loam soil having 2% organic matter and a pH of 6.6. Plots were 6.1 m long by 3.0 m wide with rows spaced 76 cm apart. Seeds were spaced 15 cm apart within the rows. The field was managed using conventional tillage practices. […] A few of the weed species could not be evaluated at every timing. […] Results are the means of the three replicates.

[6] = system: common lambsquarters (CHEAL); experiment: Test 5 field trial, postemergence; assay type: in vivo, Chenopodium album
Source text: (§6) Corn seeds (hybrid ‘Pioneer 38H69’) were planted in mid spring season, 5.1 cm deep in a silty clay loam soil having 3% organic matter and a pH of 6.5. Plots were 9.1 m long by 3.0 m wide with rows spaced 76 cm apart. The field was managed using conventional tillage practices. […] All treatments included a surfactant except glufosinate treatments, both alone and in combination. […] Results are summarized in Table 5 and are the means of the three replicates.

shepherd's purse (CAPBP) = experiment: Test 5 field trial, postemergence; assay type: in vivo, Capsella bursa-pastoris
Source text: as §6

velvetleaf (ABUTH) [7] = experiment: Test 6 field trial, postemergence; assay type: in vivo, Abutilon theophrasti
Source text: as §1

goosegrass (ELEIN) = experiment: Test 11 field trial, preemergence; assay type: in vivo, Eleusine indica
Source text: as §4, §5

common ragweed (AMBEL) = experiment: Test 5 field trial, postemergence; assay type: in vivo, Ambrosia artemisiifolia
Source text: as §6

[8] = system: tropical spiderwort (COMBE); experiment: Test 11 field trial, preemergence; assay type: in vivo, Commelina benghalensis; set-up: scale not given here; conditions: alone or + atrazine 1500 or metolachlor 2500
Source text: as §4, §5

southern sandbur (CCHEC) = experiment: Test 11 field trial, preemergence; assay type: in vivo, Cenchrus echinatus; set-up: scale not given here; conditions: alone or + atrazine 1500 or metolachlor 2500
Source text: as §4, §5

[9] = 56 DAA, g a.i./ha: Cpd 2 50, S-Metolachlor 1870
[10] = 56 DAA, g a.i./ha: Cpd 2 100, Atrazine 1680, S-Metolachlor 1870
[11] = 56 DAA, g a.i./ha: Cpd 2 150, S-Metolachlor 1870
[12] = 30 DAA, Cpd 2/Cpd 1 at 62 g a.i./ha, alone or + atrazine 1500 or metolachlor 2500
[13] = 30 DAA, Cpd 2/Cpd 1 at 125 g a.i./ha, alone or + atrazine 1500 or metolachlor 2500
[14] = 44 DAA, Cpd 2/Cpd 1 at 62 g a.i./ha, alone or + atrazine 1500 or metolachlor 2500
[15] = 44 DAA, Cpd 2/Cpd 1 at 125 g a.i./ha, alone or + atrazine 1500 or metolachlor 2500
[16] = 62 DAA, 62 g a.i./ha, scale 0 to 100
[17] = 62 DAA, 125 g a.i./ha, scale 0 to 100
[18] = 16 DAA, Cpd 2 30 g a.i./ha alone or with glufosinate 470 or glyphosate 1120
[19] = 16 DAA, Cpd 2 60 g a.i./ha alone or with atrazine 1120, glufosinate 470 or glyphosate 1120
[20] = 31 DAA, Cpd 2 30 g a.i./ha alone or with glufosinate 470 or glyphosate 1120
[21] = 31 DAA, Cpd 2 60 g a.i./ha alone or with atrazine 1120, glufosinate 470 or glyphosate 1120
[22] = 16 DAA, Cpd 2/Cpd 1 at 62 g a.i./ha
[23] = 16 DAA, Cpd 2/Cpd 1 at 125 g a.i./ha
[24] = 30 DAA, Cpd 2/Cpd 1 at 62 g a.i./ha
[25] = 30 DAA, Cpd 2/Cpd 1 at 125 g a.i./ha
[26] = 44 DAA, Cpd 2/Cpd 1 at 62 g a.i./ha
[27] = 44 DAA, Cpd 2/Cpd 1 at 125 g a.i./ha
[28] = 62 DAA, Cpd 2/Cpd 1 at 62 g a.i./ha
[29] = 62 DAA, Cpd 2/Cpd 1 at 125 g a.i./ha
[30] = 91 DAA, Cpd 2/Cpd 1 at 62 g a.i./ha
[31] = 91 DAA, Cpd 2/Cpd 1 at 125 g a.i./ha

SMILES: COC(=O)c1nc(C2CC2)nc(N)c1Cl [Compound 2, methyl 6-amino-5-chloro-2-cyclopropyl-4-pyrimidinecarboxylate]
- SETLU Obs (yellow foxtail (SETLU) [1]; 14 DAA, 30 g a.i./ha): 0%
- SETLU Obs (yellow foxtail (SETLU) [1]; 14 DAA, 60 g a.i./ha): 0%
- SETLU Obs (yellow foxtail (SETLU) [1]; 28 DAA, 30 g a.i./ha): 0%
- SETLU Obs (yellow foxtail (SETLU) [1]; 28 DAA, 60 g a.i./ha): 0%
- SETLU Obs (yellow foxtail (SETLU) [2]; g a.i./ha: Cpd 2 50, S-Metolachlor 1870): 0
- SETLU Obs (yellow foxtail (SETLU) [2]; g a.i./ha: Cpd 2 100, Atrazine 1680, S-Metolachlor 1870): 0
- SETLU Obs (yellow foxtail (SETLU) [2]; g a.i./ha: Cpd 2 150, S-Metolachlor 1870): 0
- SETFA Obs (giant foxtail (SETFA); 14 DAA, 30 g a.i./ha): 0%
- SETFA Obs (giant foxtail (SETFA); 14 DAA, 60 g a.i./ha): 0%
- SETFA Obs (giant foxtail (SETFA); 28 DAA, 30 g a.i./ha): 0%
- SETFA Obs (giant foxtail (SETFA); 28 DAA, 60 g a.i./ha): 0%
- ABUTH Obs (velvetleaf (ABUTH) [3]; 28 DAA, g a.i./ha: Cpd 2 50, S-Metolachlor 1870): 0
- ABUTH Obs (velvetleaf (ABUTH) [3]; 28 DAA, g a.i./ha: Cpd 2 100, Atrazine 1680, S-Metolachlor 1870): 0
- ABUTH Obs (velvetleaf (ABUTH) [3]; 28 DAA, g a.i./ha: Cpd 2 150, S-Metolachlor 1870): 0
- ABUTH Obs (velvetleaf (ABUTH) [3]; [9]): 0
- ABUTH Obs (velvetleaf (ABUTH) [3]; [10]): 0
- ABUTH Obs (velvetleaf (ABUTH) [3]; [11]): 10
- POLPY Obs ([4]; 14 DAA, 30 g a.i./ha): 20%
- POLPY Obs ([4]; 14 DAA, 60 g a.i./ha): 40%
- POLPY Obs ([4]; 28 DAA, 30 g a.i./ha): 20%
- POLPY Obs ([4]; 28 DAA, 60 g a.i./ha): 40%
- SIDRH Obs (arrowleaf sida (SIDRH); 16 DAA, Cpd 2/Cpd 1 at 62 g a.i./ha, alone or + atrazine 1500 or metolachlor 2500): 20
- SIDRH Obs (arrowleaf sida (SIDRH); 16 DAA, Cpd 2/Cpd 1 at 125 g a.i./ha, alone or + atrazine 1500 or metolachlor 2500): 40
- SIDRH Obs (arrowleaf sida (SIDRH); [12]): 40
- SIDRH Obs (arrowleaf sida (SIDRH); [13]): 70
- SIDRH Obs (arrowleaf sida (SIDRH); [14]): 40
- SIDRH Obs (arrowleaf sida (SIDRH); [15]): 75
- SIDRH Obs (arrowleaf sida (SIDRH); [16]): 0
- SIDRH Obs (arrowleaf sida (SIDRH); [17]): 40
- SIDRH Obs (arrowleaf sida (SIDRH); 91 DAA, 62 g a.i./ha, scale 0 to 100): 0
- SIDRH Obs (arrowleaf sida (SIDRH); 91 DAA, 125 g a.i./ha, scale 0 to 100): 40
- ABUTH Obs (velvetleaf (ABUTH) [5]; 19 DAA, g a.i./ha: Cpd 2 50, S-Metolachlor 1870): 28%
- ABUTH Obs (velvetleaf (ABUTH) [5]; 19 DAA, g a.i./ha: Cpd 2 100, Atrazine 1680, S-Metolachlor 1870): 45%
- ABUTH Obs (velvetleaf (ABUTH) [5]; 19 DAA, g a.i./ha: Cpd 2 150, S-Metolachlor 1870): 58%
- ABUTH Obs (velvetleaf (ABUTH) [5]; 29 DAA, g a.i./ha: Cpd 2 50, S-Metolachlor 1870): 43%
- ABUTH Obs (velvetleaf (ABUTH) [5]; 29 DAA, g a.i./ha: Cpd 2 100, Atrazine 1680, S-Metolachlor 1870): 68%
- ABUTH Obs (velvetleaf (ABUTH) [5]; 29 DAA, g a.i./ha: Cpd 2 150, S-Metolachlor 1870): 90%
- ABUTH Obs (velvetleaf (ABUTH) [5]; [9]): 18%
- ABUTH Obs (velvetleaf (ABUTH) [5]; [10]): 60%
- ABUTH Obs (velvetleaf (ABUTH) [5]; [11]): 85%
- CHEAL Obs [6, 18]: 83%
- CHEAL Obs [6, 19]: 87%
- CHEAL Obs [6, 20]: 82%
- CHEAL Obs [6, 21]: 99%
- CAPBP Obs (shepherd's purse (CAPBP); [18]): 25%
- CAPBP Obs (shepherd's purse (CAPBP); [19]): 28%
- CAPBP Obs (shepherd's purse (CAPBP); [20]): 0%
- CAPBP Obs (shepherd's purse (CAPBP); [21]): 2%
- ABUTH Obs (velvetleaf (ABUTH) [7]; 14 DAA, 30 g a.i./ha): 0%
- ABUTH Obs (velvetleaf (ABUTH) [7]; 14 DAA, 60 g a.i./ha): 0%
- ABUTH Obs (velvetleaf (ABUTH) [7]; 28 DAA, 30 g a.i./ha): 0%
- ABUTH Obs (velvetleaf (ABUTH) [7]; 28 DAA, 60 g a.i./ha): 0%
- ELEIN Obs (goosegrass (ELEIN); [12]): 0
- ELEIN Obs (goosegrass (ELEIN); [13]): 20
- ELEIN Obs (goosegrass (ELEIN); [14]): 0
- ELEIN Obs (goosegrass (ELEIN); [15]): 0
- ELEIN Obs (goosegrass (ELEIN); [16]): 0
- ELEIN Obs (goosegrass (ELEIN); [17]): 0
- AMBEL Obs (common ragweed (AMBEL); [18]): 85%
- AMBEL Obs (common ragweed (AMBEL); [19]): 95%
- AMBEL Obs (common ragweed (AMBEL); [20]): 83%
- AMBEL Obs (common ragweed (AMBEL); [21]): 99%
- COMBE Obs [8, 22]: 40
- COMBE Obs [8, 23]: 60
- COMBE Obs [8, 24]: 40
- COMBE Obs [8, 25]: 60
- COMBE Obs [8, 26]: 40
- COMBE Obs [8, 27]: 60
- COMBE Obs [8, 28]: 0
- COMBE Obs [8, 29]: 40
- COMBE Obs [8, 30]: 0
- COMBE Obs [8, 31]: 40
- CCHEC Obs (southern sandbur (CCHEC); [22]): 0
- CCHEC Obs (southern sandbur (CCHEC); [23]): 40
- CCHEC Obs (southern sandbur (CCHEC); [24]): 0
- CCHEC Obs (southern sandbur (CCHEC); [25]): 40
- CCHEC Obs (southern sandbur (CCHEC); [26]): 0
- CCHEC Obs (southern sandbur (CCHEC); [27]): 0
- CCHEC Obs (southern sandbur (CCHEC); [28]): 0
- CCHEC Obs (southern sandbur (CCHEC); [29]): 0
- CCHEC Obs (southern sandbur (CCHEC); [30]): 0
- CCHEC Obs (southern sandbur (CCHEC); [31]): 0
